The target in test [1] is T1, 4-hydroxy-tetrahydrodipicolinate synthase (Escherichia coli K-12) (UniProt P0A6L2).
T1 sequence (whole entry): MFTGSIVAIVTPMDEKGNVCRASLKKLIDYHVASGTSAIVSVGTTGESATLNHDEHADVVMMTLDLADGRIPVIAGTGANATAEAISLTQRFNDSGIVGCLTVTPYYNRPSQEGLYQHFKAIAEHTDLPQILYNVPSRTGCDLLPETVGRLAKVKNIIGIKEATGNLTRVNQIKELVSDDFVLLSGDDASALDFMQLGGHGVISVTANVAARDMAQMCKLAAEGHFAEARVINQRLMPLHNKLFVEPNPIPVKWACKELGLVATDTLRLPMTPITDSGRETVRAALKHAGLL
Put plainly: Inhibitory concentration against Escherichia coli dihydrodipicolinate synthase after 30 minutes.

The target of test [2] is T1, 4-hydroxy-tetrahydrodipicolinate synthase (Escherichia coli K-12). In words: Inhibitory concentration against Escherichia coli dihydrodipicolinate synthase after 15 minutes.

The structures appear in SMILES notation.

`CCOC(=O)/C=C/C(=O)CCC(=O)OCC`: the Concentration in test [1] and in test [2] was 50 nM in each case.

(Values after ChEMBL document CHEMBL1141987, “Two new irreversible inhibitors of dihydrodipicolinate synthase: diethyl (E,E)-4-oxo-2,5-heptadienedioate and diethyl (E)-4-oxo-2-heptenedioate” (Bioorg Med Chem Lett, 2005).)
